Measurements published in patent US12378204B2, “Triazole compounds and preparation method therefor and use thereof” (WUHAN LL SCIENCE AND TECHNOLOGY DEVELOPMENT CO., LTD., priority 2019, dated 2025).

How the values were obtained:
[1] = target: T1, hLPAR1 (human lysophosphatidic acid receptor 1) (Homo sapiens, UniProt Q92633); test: FLIPR intracellular calcium assay, hLPAR1 expressed in CHO-K1 cells; format: cell-based; settings: antagonism of 1 μM LPA-induced calcium increase, CHO-K1 cells expressing hLPAR1; read-out: LPAR1 IC50
T1 construct: expressed in transfected cells
Description: The antagonist property of the compounds disclosed herein was determined using the FLIPR (fluorescence imaging plate reader) method, wherein the compounds are inhibitors for the intracellular calcium increase induced by activation of hLPAR1 (human lysophosphatidic acid receptor 1, accession No. NM_001401.4) expressed in CHO-K1 cells (Chinese hamster ovary cells K1, ATCC).
CHO-K1 cells stably expressing hLPAR1 were cultured in F-12 medium containing 10% FBS (fetal bovine serum, Gibco, 10099-141), 1% penicillin-streptomycin (Gibco, 15140-122) and 0.4 mg/mL hygromycin B (Gibco, 10687010) in a cell incubator (37° C., […]). During 18-24 h prior to the FLIPR experiment, cells at 250,000 cells/mL were seeded into a 96-well plate (25,000 cells/well) and incubated overnight in the cell incubator. On the day of the experiment, the medium was discarded and the cells were washed in a FLIPR buffer (0.3 mL of probenecid (Thermo, P36400), 0.6 mL of 1 M HEPES (Invitrogen, 15630080) and 29.1 mL of HBSS (Invitrogen, 14065056) per 30 mL of buffer). Each well was added with 75 μL of 1 mM Fluo-4 AM fluorescent dye (Thermo, F14202) and then the cells were subjected to dye-loading incubation at 37° C. for 1.0 h. The 96-well plate was then washed once with buffer, added with a buffer containing a test compound or vehicle at 50 μL per well and then incubated for 30 min at room temperature. The cell plate was then placed in the FLIPR for baseline fluorescence measurements (excitation at 485 nm and emission at 525-535 nm). An agonist (oleoyl-L-α-lysophosphatidic acid sodium salt (Sigma, L7260) at a final concentration of 1 μM) or a vehicle (ultrapure water) was then added at 50 μL/well, fluorescence values were measured for 2 min at 1-second intervals, and finally the output fluorescence counts were analyzed.

[2] = tested on: A2058 (human melanoma cells); test: A2058 cell scratch assay (cell migration inhibition); format: cell-based; settings: A2058 scratch area 0 h vs 24 h, 10 μM LPA, read-out: Cell migration inhibition rate
Description: The activity of the compounds disclosed herein at the cell level in vitro is evaluated by A2058 (human melanoma cells, Beina Bio, BNCC341099) cell scratch assay. The inhibitory activity of the compounds against LPAR1 can be reflected by inhibition of cell scratch healing.
A2058 cells in a T75 cm^2 cell culture flask were digested and gently pipetted into single cells, adjusted to a cell density of 4×10^5 cells/mL, and then seeded into a 24-well plate. After the cell confluence reached 80%, the cell culture plate was taken out and the original medium was discarded. Serum-free medium was then added, and the cells were starved overnight in an incubator (37° C., 5% CO2). The cell culture plate was then taken out, and cell scratches were made along the diameter of the wells using a 200 μL pipette tip. The cell culture plate was then added with 500 μL of serum-free medium and then shaken gently to wash away the residual cells on the scratched surface, and this was repeated twice. The medium was discarded and 500 μL of 1% FBS medium containing the compound was then added, and the mixture was incubated at 37° C. for 30 min. […] Olympus CKX53 was used to observe the scratches, and MShot image analysis system was used to take pictures and measure the scratch area at 0 h. Then the cell culture plate was incubated in the incubator (37° C., 5% CO2). 24 h later, the scratches were observed again with Olympus CKX53, and MShot image analysis system was used to take pictures and measure the scratch area at 24 h. Cell migration inhibition rate was calculated according to the following formula: […]

[3] = In vitro cytotoxicity assay in HepG2 cells, CCK-8 method; format: cell-based; settings: human, 48 h incubation
Description: In vitro cytotoxicity assay for the compounds disclosed herein was performed in HepG2 cells using the CCK-8 method. HepG2 cells (Beina Bio) in the logarithmic growth phase were collected, the concentration of cell suspension was adjusted, and then the cells were plated on a 96-well cell culture plate at 50,000 cells/well. • The cells were then incubated overnight in a cell incubator (5% CO2, 37° C.), and after 80-90% cell confluence was achieved, test compounds or vehicle (DMSO) at various concentration gradients were added after medium change. The resulting mixture was incubated in the cell incubator (5% CO2, 37° C.) for 48 h. After the treatment, the medium in the plate was discarded. The plate was washed twice with PBS, added with CCK-8 working solution (Beyotime) at 100 μL per well, and then incubated at 37° C. for 1.5 h in the dark. Absorbance at OD450nm was measured for each well on a microplate reader, and CC50 value of each compound was analyzed and calculated.

[4] = In vitro metabolic stability, human liver microsomes; format: in vitro ADME; settings: 1 mg/mL liver microsome protein, 37° C.
Description: (§1) The in vitro metabolic stability of the compounds disclosed herein was determined through incubation of liver microsomes of various species. A proper amount of test compound was added into a liver microsome reaction system (1 mg/mL liver microsome protein, 25 U/mL glucose-6 phosphate dehydrogenase, 1 mM NADP, 6 mM D-glucose 6-phosphate and 5 mM MgCl2), and then the mixture was incubated in a water bath kettle at 37° C. to start reaction. At each time point, 100 μL of the reaction system was added into a centrifuge tube containing 400 μL of internal standard working solution (containing a 200 ng/mL solution of dexamethasone, diclofenac, tolbutamide and labetalol in acetonitrile) precooled at 0° C. so as to stop the reaction, and the mixture was then centrifuged at 10,000 g for 10 min at 4° C. The supernatant was collected for LC-MS assay so as to obtain the values of in vitro metabolic half-life of the test compounds in liver microsomes of various species.

[5] = In vitro metabolic stability, rat liver microsomes; format: in vitro ADME; settings: 1 mg/mL liver microsome protein, 37° C.
Description: as §1

[6] = In vitro metabolic stability, mouse liver microsomes; format: in vitro ADME; settings: 1 mg/mL liver microsome protein, 37° C.
Description: as §1

T1 sequence (Q92633 whole entry): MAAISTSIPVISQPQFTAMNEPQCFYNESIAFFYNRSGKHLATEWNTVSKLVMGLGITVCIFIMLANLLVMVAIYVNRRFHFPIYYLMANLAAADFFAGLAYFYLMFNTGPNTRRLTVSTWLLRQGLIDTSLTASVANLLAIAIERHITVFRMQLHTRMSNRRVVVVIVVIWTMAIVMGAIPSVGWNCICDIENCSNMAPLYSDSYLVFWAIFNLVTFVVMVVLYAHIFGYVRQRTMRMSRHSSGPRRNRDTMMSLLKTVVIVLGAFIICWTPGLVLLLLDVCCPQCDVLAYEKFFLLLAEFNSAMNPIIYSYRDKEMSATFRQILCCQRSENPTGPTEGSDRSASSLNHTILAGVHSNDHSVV

SMILES	IC50 [1]	half-life [4]	half-life [5]	half-life [6]	inhibition [2]	CC50 at 48 h [3]
CN(Cc1ccccc1)C(=O)CCc1c(-c2ccc(O[C@H]3CCC[C@H](C(=O)O)C3)cc2)nnn1C (racemic) [Compound 3]	50 to 300 nM	> 30 min	> 30 min	> 30 min	30 to 50%	> 200000 nM
CN(Cc1ccccc1)C(=O)OCc1c(-c2ccc(Oc3cc(Cl)ccc3C(=O)O)cc2)nnn1C [Compound 7, 4-chloro-2-(4-(5-(((benzyl(methyl)carbamoyl)oxo)methyl)-1-methyl-1H-1,2,3-triazol-4-yl)phenoxy)benzoic acid]	300 to 10000 nM	> 30 min	< 30 min	> 30 min	0 to 30%	> 200000 nM
Cn1nnc(-c2ccc(O[C@H]3CCC[C@H](C(=O)O)C3)cc2)c1CNC(=O)/C=C/c1ccccc1 (racemic) [Compound 5]	300 to 10000 nM	–	–	–	0 to 30%	> 200000 nM
CN(Cc1c(-c2ccc(O[C@H]3CCC[C@H](C(=O)O)C3)cc2)nnn1C)C(=O)OCc1ccccc1 [Compound 14, (1S,3S)-3-(4-(5-((((benzyloxy)carbonyl)(methyl)amino)methyl)-1-methyl-1H-1,2,3-triazol-4-yl)phenoxy)cyclohexane-1-carboxylic acid]	50 to 300 nM	–	–	–	30 to 50%	> 200000 nM
CN(Cc1ccccc1)C(=O)OCc1c(-c2ccc(O/C=C/C(=O)O)cc2)nnn1C [Compound 10, (E)-3-(4-(5-(((benzyl(methyl)carbamoyl)oxo)methyl)-1-methyl-1H-1,2,3-triazol-4-yl)phenoxy)acrylic acid]	50 to 300 nM	–	–	–	30 to 50%	> 200000 nM
CN(Cc1ccccc1)C(=O)/C=C/c1c(-c2ccc(O[C@H]3CCC[C@H](C(=O)O)C3)cc2)nnn1C (racemic) [Compound 2]	50 to 300 nM	> 30 min	> 30 min	> 30 min	0 to 30%	> 200000 nM
Cn1nnc(-c2ccc(O[C@H]3CCC[C@H](C(=O)O)C3)cc2)c1CNC(=O)Cc1ccccc1 [Compound 4, (1S,3S)-3-((4-(5-(2-N-phenylacetamido))-1-methyl-1H-1,2,3-triazol-4-yl)-phenoxy)cyclohexane-1-carboxylic acid]	50 to 300 nM	–	–	–	30 to 50%	> 200000 nM
Cn1nnc(-c2ccc(O[C@H]3CCC[C@H](C(=O)O)C3)cc2)c1C1CN(Cc2ccccc2)C(=O)O1 (stereo partly drawn) [Compound 9, (1S,3S)-3-(4-(5-(3-benzyl-2-carbonyloxazolidin-5-yl)-1-methyl-1H-1,2,3-triazol-4-yl)phenoxy)cyclohexane-1-carboxylic acid]	50 to 300 nM	–	–	–	30 to 50%	> 200000 nM
Cn1nnc(-c2ccc(O[C@H]3CCC[C@H](C(=O)O)C3)cc2)c1CNS(=O)(=O)c1ccccc1 (racemic) [Compound 18, (+/−)-(1S,3S)-3-(4-(1-methyl-5-(benzenesulfonamidomethyl)-1H-1,2,3-triazol-4-yl)phenoxy)cyclohexane-1-carboxylic acid]	50 to 300 nM	–	–	–	30 to 50%	> 200000 nM

Continued, in another order:

IC50 [1]	half-life [4]	half-life [5]	half-life [6]	SMILES	inhibition [2]	CC50 at 48 h [3]
50 to 300 nM	> 30 min	> 30 min	> 30 min	CN(C(=O)NCc1c(-c2ccc(O[C@H]3CCC[C@H](C(=O)O)C3)c(F)c2)nnn1C)C1CCCC1 [Compound 25]	30 to 50%	> 200000 nM
≤ 50 nM	> 30 min	> 30 min	> 30 min	CN(C(=O)NCc1c(-c2ccc(O[C@H]3CCC[C@H](C(=O)O)C3)c(C(F)(F)F)n2)nnn1C)C1CCCC1 (racemic) [Compound 26, (+/−)-(1S,3S)-3-((6-(5-((3-cyclopentyl-3-methylureido)methyl)-1-methyl-1H-1,2,3-triazol-4-yl)-2-(trifluoromethyl)pyridin-3-yl)oxo)cyclohexane-1-carboxylic acid]	30 to 50%	> 200000 nM
50 to 300 nM	> 30 min	> 30 min	> 30 min	CN(C(=O)OC1CCCC1)c1c(-c2ccc(O[C@H]3CCC[C@H](C(=O)O)C3)cc2)nnn1C (racemic) [Compound 31, (+/−)-(1S,3S)-3-(4-(5-(((cyclopentyloxy)carbonyl)(methyl)amino)-1-methyl-1H-1,2,3-triazol-4-yl)phenoxy)cyclohexane-1-carboxylic acid]	30 to 50%	> 200000 nM
≤ 50 nM	232 min	57 min	192 min	CN(C(=O)CCc1c(-c2ccc(O[C@H]3CCC[C@H](C(=O)O)C3)c(C(F)(F)F)n2)nnn1C)C1CCCC1 (racemic) [Compound 27-A, (+/−)-(1S,3S)-3-((6-(5-(3-(cyclopentyl(methyl)amino)-3-carbonylpropyl)-1-methyl-1H-1,2,3-triazol-4-yl)-2-(trifluoromethyl)pyridin-3-yl)oxo)cyclohexane-1-carboxylic acid]	50 to 70%	> 200000 nM
50 to 300 nM	–	–	–	CC(C)OCc1c(-c2ccc(O[C@H]3CCC[C@H](C(=O)O)C3)cc2)nnn1C (racemic) [Compound 22, (+/−)-(1S,3S)-3-(4-(5-(isopropoxymethyl)-1-methyl-1H-1,2,3-triazol-4-yl)phenoxy)cyclohexane-1-carboxylic acid]	30 to 50%	> 200000 nM
50 to 300 nM	–	–	–	Cn1nnc(-c2ccc(O[C@H]3CCC[C@H](C(=O)O)C3)cc2)c1CNC(=O)C1CCCC1 (racemic) [Compound 20, (+/−)-(1S,3S)-3-(4-(5-(cyclopentanecarboxamido<oxalylamino>methyl)-1-methyl-1H-1,2,3-triazol-4-yl)phenoxy)cyclohexane-1-carboxylate]	30 to 50%	> 200000 nM
